{"source": "paper PMC4508327", "about": "(Clinical cancer research : an official journal of the …, 2015)", "key": {"[1]": {"experiment": "QTc interval", "assay_type": "in vivo, human"}, "[2]": {"tested_on": "patients with advanced solid tumors", "experiment": "Phase I safety: adverse events"}, "[3]": {"tested_on": "patients with advanced solid tumors", "settings": "human, in vivo"}, "[4]": {"tested_on": "advanced solid tumors", "experiment": "Objective tumor response", "assay_type": "in vivo, human"}, "[5]": {"settings": "in vivo"}, "[6]": {"settings": "preclinical; no reference given; cited from earlier work"}}, "data": [{"smiles": "CN(C)C1CCN(C(=O)c2ccc(NC(=O)Nc3ccc(-c4nc(N5CCOCC5)nc(N5CCOCC5)n4)cc3)cc2)CC1", "note": "[PF-05212384]", "values": [{"measurement": "association with QTc prolongation", "setting": "[1]; based on the lack of a dose-effect relationship", "result": "likely not associated with QTc prolongation"}, {"measurement": "patients with grade 1 QTc prolongation", "setting": "[1]; human, in vivo", "result": 5, "unit": "%"}, {"measurement": "patients with grade 2 QTc prolongation", "setting": "[1]; human, in vivo", "result": 5, "unit": "%"}, {"measurement": "patients with grade 3 QTc prolongation", "setting": "[1]; in vivo", "result": "no patients"}, {"measurement": "maximum tolerated dose (MTD)", "setting": "[2]; IV once weekly, estimated by modified CRM", "result": 154, "unit": "mg"}, {"measurement": "deaths on study and within 28 days of last-dose administration", "setting": "[2]; seven disease progression, one colon obstruction, one pneumonia", "result": "Nine"}, {"measurement": "all-cause AE: anemia", "setting": "[3]", "result": 18.2, "unit": "%"}, {"measurement": "all-cause AE: asthenia", "setting": "[3]", "result": 26, "unit": "%"}, {"measurement": "all-cause AE: back pain", "setting": "[3]", "result": 19.5, "unit": "%"}, {"measurement": "all-cause AE: constipation", "setting": "[3]", "result": 23.4, "unit": "%"}, {"measurement": "all-cause AE: cough", "setting": "[3]", "result": 23.4, "unit": "%"}, {"measurement": "all-cause AE: decreased appetite", "setting": "[3]", "result": 37.7, "unit": "%"}, {"measurement": "all-cause AE: diarrhea", "setting": "[3]", "result": 24.7, "unit": "%"}, {"measurement": "all-cause AE: dyspnea", "setting": "[3]", "result": 19.5, "unit": "%"}, {"measurement": "all-cause AE: fatigue", "setting": "[3]", "result": 32.5, "unit": "%"}, {"measurement": "all-cause AE: hyperglycemia", "setting": "[3]", "result": 28.6, "unit": "%"}, {"measurement": "all-cause AE: increased ALT and AST", "setting": "[3]", "result": 16.9, "unit": "%"}, {"measurement": "all-cause AE: mucosal inflammation and stomatitis", "setting": "[3]", "result": 59.7, "unit": "%"}, {"measurement": "all-cause AE: nausea", "setting": "[3]", "result": 55.8, "unit": "%"}, {"measurement": "all-cause AE: pyrexia", "setting": "[3]", "result": 23.4, "unit": "%"}, {"measurement": "all-cause AE: rash", "setting": "[3]", "result": 23.4, "unit": "%"}, {"measurement": "all-cause AE: vomiting", "setting": "[3]", "result": 35.1, "unit": "%"}, {"measurement": "patients who discontinued due to treatment-related AEs", "setting": "[3]", "result": 3.9, "unit": "%"}, {"measurement": "treatment-related AE: decreased appetite", "setting": "[3]", "result": 24.7, "unit": "%"}, {"measurement": "treatment-related AE: fatigue", "setting": "[3]", "result": 24.7, "unit": "%"}, {"measurement": "treatment-related AE: hyperglycemia", "setting": "[3]", "result": 26, "unit": "%"}, {"measurement": "treatment-related AE: mucosal inflammation and stomatitis", "setting": "[3]", "result": 58.4, "unit": "%"}, {"measurement": "treatment-related AE: nausea", "setting": "[3]", "result": 42.9, "unit": "%"}, {"measurement": "treatment-related AE: vomiting", "setting": "[3]", "result": 24.7, "unit": "%"}, {"measurement": "recommended phase 2 dose", "setting": "[3]; iv", "result": 154, "unit": "mg"}, {"measurement": "patients with long-lasting stable disease (>6 months)", "setting": "[4]; 77 treated patients", "result": "Eight"}, {"measurement": "clinical benefit response (CBR)", "setting": "[4]; CR, PR or SD lasting ≥6 months, overall", "result": 13, "unit": "%"}, {"measurement": "objective tumor response rate", "setting": "[4]; overall study population, n = 77", "result": 2.6, "unit": "%"}, {"measurement": "partial responses (PR)", "setting": "[4]; overall study population, plus one unconfirmed PR", "result": "two"}, {"measurement": "accumulation (accumulation ratios for Cmax)", "setting": "[5]; human", "result": "no accumulation"}, {"measurement": "interpatient variability in Cmax and AUC", "setting": "[5]; human", "result": "low to moderate"}, {"measurement": "terminal T1/2, mean values", "setting": "[5]; human", "result": "33 to 41", "unit": "h"}, {"measurement": "Cmax and AUC versus dose", "setting": "[5]", "result": "appeared to increase proportionally with increasing dose"}, {"measurement": "effect on cardiac, central nervous system or respiratory function", "setting": "[6]", "result": "did not show any significant effect"}]}]}
